Source: ChEMBL document CHEMBL3885881, “DrugMatrix”

Species on record: Rattus norvegicus
Assay: DrugMatrix - Regimen: Daily Repeat
Type: toxicity, organism-based, Sprague-Dawley
Design: regimen Daily Repeat, gender Male, age 6-8 weeks
Conditions: in vivo, po, route oral GAVAGE, vehicle 100 % SALINE; for ABSOLUTE BASOPHIL / ABSOLUTE EOSINOPHIL / ABSOLUTE LYMPHOCYTE / ABSOLUTE MONOCYTE / ABSOLUTE SEGMENTED NEUTROPHIL / BASOPHIL / EOSINOPHIL / ERYTHROCYTE COUNT / HEMATOCRIT / HEMOGLOBIN / LEUKOCYTE COUNT / LYMPHOCYTE / MEAN CORPUSCULAR HEMOGLOBIN / MEAN CORPUSCULAR HEMOGLOBIN CONCENTRATION / MEAN CORPUSCULAR VOLUME / MONOCYTE / NEUTROPHIL / NUCLEATED RED BLOOD CELLS / PLATELET COUNT: tissue Blood; for ALANINE AMINOTRANSFERASE / ALBUMIN / ALKALINE PHOSPHATASE / ASPARTATE AMINOTRANSFERASE / BLOOD UREA NITROGEN / CARBON DIOXIDE / CHLORIDE / CHOLESTEROL / CREATINE PHOSPHOKINASE / CREATININE / GLUCOSE / LACTATE DEHYDROGENASE / LIPASE / PHOSPHORUS / POTASSIUM / SODIUM / TOTAL BILIRUBIN / TOTAL PROTEIN / URIC ACID: tissue Plasma
[1] = 11 mg/kg, 120 h, dose level High, time 5 day
[2] = […], 72 h, dose 2.8 mg/Kg, dose level Low, time 3 day
[3] = […], 120 h, dose 2.8 mg/Kg, dose level Low, time 5 day

## Cc1cc(CC(=O)O)n(C)c1C(=O)c1ccc(Cl)cc1 [ZOMEPIRAC]
[1]
  ABSOLUTE BASOPHIL: 0 CELLS/uL
  ABSOLUTE EOSINOPHIL: 95 CELLS/uL
  ABSOLUTE LYMPHOCYTE: 12621.33 CELLS/uL
  ABSOLUTE MONOCYTE: 94.67 CELLS/uL
  ABSOLUTE SEGMENTED NEUTROPHIL: 855.67 CELLS/uL
  BASOPHIL: 0%
  EOSINOPHIL: 0.67%
  ERYTHROCYTE COUNT: 5.5 x10E6/uL
  HEMATOCRIT: 34.03%
  HEMOGLOBIN: 13.2 G/DL
  LEUKOCYTE COUNT: 13.67 x10E3/uL
  LYMPHOCYTE: 92.33%
  MEAN CORPUSCULAR HEMOGLOBIN: 24.13 pg
  MEAN CORPUSCULAR HEMOGLOBIN CONCENTRATION: 38.87 G/DL
  MEAN CORPUSCULAR VOLUME: 62.1 fL
  MONOCYTE: 0.67%
  NEUTROPHIL: 6.33%
  NUCLEATED RED BLOOD CELLS: 0 /100WBC
  PLATELET COUNT: 1240 x10E3/uL
  ALANINE AMINOTRANSFERASE: 49.33 u/L
  ALBUMIN: 3.77 G/DL
  ALKALINE PHOSPHATASE: 252.67 u/L
  ASPARTATE AMINOTRANSFERASE: 97.67 u/L
  BLOOD UREA NITROGEN: 15.67 mg/dL
  CARBON DIOXIDE: 24 mmol/L
  CHLORIDE: 105.33 MEQ/L
  CHOLESTEROL: 76.67 mg/dL
  CREATINE PHOSPHOKINASE: 395.67 u/L
  CREATININE: 0.17 mg/dL
  GLUCOSE: 143.33 mg/dL
  LACTATE DEHYDROGENASE: 595 u/L
  LIPASE: 8.67 u/L
  PHOSPHORUS: 11.83 mg/dL
  POTASSIUM: 6.93 MEQ/L
  SODIUM: 148.57 MEQ/L
  TOTAL BILIRUBIN: 0.13 mg/dL
  TOTAL PROTEIN: 5.87 G/DL
  URIC ACID: 2.33 mg/dL
[2]
  ABSOLUTE BASOPHIL: 0 CELLS/uL
  ABSOLUTE EOSINOPHIL: 111.67 CELLS/uL
  ABSOLUTE LYMPHOCYTE: 15209 CELLS/uL
  ABSOLUTE MONOCYTE: 151.67 CELLS/uL
  ABSOLUTE SEGMENTED NEUTROPHIL: 1061 CELLS/uL
  BASOPHIL: 0%
  EOSINOPHIL: 0.67%
  ERYTHROCYTE COUNT: 5.59 x10E6/uL
  HEMATOCRIT: 34.1%
  HEMOGLOBIN: 13.53 G/DL
  LEUKOCYTE COUNT: 16.53 x10E3/uL
  LYMPHOCYTE: 91.33%
  MEAN CORPUSCULAR HEMOGLOBIN: 24.2 pg
  MEAN CORPUSCULAR HEMOGLOBIN CONCENTRATION: 39.7 G/DL
  MEAN CORPUSCULAR VOLUME: 60.97 fL
  MONOCYTE: 1%
  NEUTROPHIL: 7%
  NUCLEATED RED BLOOD CELLS: 0 /100WBC
  PLATELET COUNT: 1145.33 x10E3/uL
  ALANINE AMINOTRANSFERASE: 50.67 u/L
  ALBUMIN: 4 G/DL
  ALKALINE PHOSPHATASE: 259 u/L
  ASPARTATE AMINOTRANSFERASE: 76.67 u/L
  BLOOD UREA NITROGEN: 14.67 mg/dL
  CARBON DIOXIDE: 23 mmol/L
  CHLORIDE: 102 MEQ/L
  CHOLESTEROL: 65.33 mg/dL
  CREATINE PHOSPHOKINASE: 362.33 u/L
  CREATININE: 0.2 mg/dL
  GLUCOSE: 180 mg/dL
  LACTATE DEHYDROGENASE: 137 u/L
  LIPASE: 12.33 u/L
  PHOSPHORUS: 13.07 mg/dL
  POTASSIUM: 6.11 MEQ/L
  SODIUM: 141.93 MEQ/L
  TOTAL BILIRUBIN: 0.2 mg/dL
  TOTAL PROTEIN: 5.77 G/DL
  URIC ACID: 1.6 mg/dL
[3]
  ABSOLUTE BASOPHIL: 0 CELLS/uL
  ABSOLUTE EOSINOPHIL: 70.67 CELLS/uL
  ABSOLUTE LYMPHOCYTE: 13627.67 CELLS/uL
  ABSOLUTE MONOCYTE: 0 CELLS/uL
  ABSOLUTE SEGMENTED NEUTROPHIL: 1235 CELLS/uL
  BASOPHIL: 0%
  EOSINOPHIL: 0.33%
  ERYTHROCYTE COUNT: 5.81 x10E6/uL
  HEMATOCRIT: 35.67%
  HEMOGLOBIN: 14.07 G/DL
  LEUKOCYTE COUNT: 14.93 x10E3/uL
  LYMPHOCYTE: 91.33%
  MEAN CORPUSCULAR HEMOGLOBIN: 24.23 pg
  MEAN CORPUSCULAR HEMOGLOBIN CONCENTRATION: 39.47 G/DL
  MEAN CORPUSCULAR VOLUME: 61.53 fL
  MONOCYTE: 0%
  NEUTROPHIL: 8.33%
  NUCLEATED RED BLOOD CELLS: 0 /100WBC
  PLATELET COUNT: 1274.67 x10E3/uL
  ALANINE AMINOTRANSFERASE: 59.33 u/L
  ALBUMIN: 4.17 G/DL
  ALKALINE PHOSPHATASE: 331 u/L
  ASPARTATE AMINOTRANSFERASE: 103.33 u/L
  BLOOD UREA NITROGEN: 16.33 mg/dL
  CARBON DIOXIDE: 22.67 mmol/L
  CHLORIDE: 104.67 MEQ/L
  CHOLESTEROL: 64.33 mg/dL
  CREATINE PHOSPHOKINASE: 532.33 u/L
  CREATININE: 0.2 mg/dL
  GLUCOSE: 159.67 mg/dL
  LACTATE DEHYDROGENASE: 749.67 u/L
  LIPASE: 10 u/L
  PHOSPHORUS: 12.53 mg/dL
  POTASSIUM: 6.9 MEQ/L
  SODIUM: 147.37 MEQ/L
  TOTAL BILIRUBIN: 0.2 mg/dL
  TOTAL PROTEIN: 6.2 G/DL
  URIC ACID: 2 mg/dL
